Measurements reported in PMC11513920, “Building Metabolically Stable and Potent Anti-HIV Thioether-Lipid Analogues of Tenofovir Exalidex: A thorough Pharmacological Analysis” (Journal of Medicinal Chemistry, 2024).
“And” between values parts separate entries of the source, which are not always exact repeats. Identical values can stand only once.

How the values were obtained:
[1] = HepaRG cellular metabolic stability; conditions: human, other cell line; for hepatocyte CLint at 20 μM: HepaRG Clint,u, calculated from cellular t1/2; for half-life at 20 μM: HepaRG t1/2, after 3 h loading at 20 μM, 37 °C
Excerpt: Naturally, due the metabolic complexity of HepaRG cells, we specifically analyzed prodrug cellular uptake and stability, as represented by Cmax and intrinsic clearance (Clint,u) accordingly (Figure 7 and Table 9).
The HepaRG cell line (HPRGC10, Thermo Fisher Scientific) was used to evaluate the cellular permeability and metabolic stability for select final compounds in vitro. The cells were initially thawed with working media composed of HepaRG Thaw, Plate, & General Purpose Medium Supplement (HPRG670), Williams Medium E (100 mL), and GlutaMax (1 mL), all purchased from Thermo Fisher Scientific. […] After the thawing medium was aspirated from each well, the cells were cultured for an additional 6 days with working media consisting of HepaRG Maintenance/Metabolism Medium Supplement (HPRG720), Williams Medium E (500 mL), and GlutaMax (1 mL), all purchased from Thermo Fisher Scientific. Upon completing the 7-day culture period, HepaRG cells were plated in enough wells to allow for duplicate analysis of prodrugs in two independent cellular uptake or metabolic stability experiments. All studied compounds were formulated with human serum albumin (HSA, 5:1 compound to HSA molar ratio) and subsequently diluted to a 20 μM final concentration with assay medium composed of serum-free INVITROGRO HI Medium and TORPEDO Antibiotic Mix purchased from BioIVT. For cellular uptake determinations, the maintenance/metabolism medium was first aspirated from each well, and then the plated cells were spiked with 1.0 mL of test compound stock solution. Subsequently, the plate was incubated at 37 °C under 5% CO2 environment over the desired time course (seven data points/compound). Blank wells not treated with prodrug were included in assay runs as controls and initial time points (0 min). At each time point, the test compound solution was removed from the appropriate wells, and the plated cells were washed with 1.0 mL of DPBS twice. The HepaRG cells were then extracted with 500 μL of cold ISTD solution (1 μM 7-ethoxy-d5-coumarin in 70/30 MeOH/H2O), and the quenched aliquots were centrifuged at 15,000 g for 10 min at 4 °C. […] After obtaining prodrug Cmax and Tmax values from the cellular uptake assay, HepaRG metabolic stability was then assessed. Following the initial 7-day culture procedure, the maintenance/metabolism medium was aspirated from each well, and the plated cells were spiked with 1.0 mL of test compound stock solution. […] The test compound solution was then removed from each well and replaced with untreated dilution medium (i.e., serum-free INVITROGRO HI Medium and TORPEDO Antibiotic Mix), initializing the stability determination. The HepaRG plate was once more incubated at 37 °C under 5% CO2 atmosphere over the desired time course (nine data points/compound), and sample preparation and analysis were handled in identical fashion to cellular uptake experiments.

[2] = Mouse plasma pharmacokinetics after intravenous dose; format: in vivo, male C57BL/6 mice; conditions: i.v. 3 mg/kg; for k (terminal elimination rate constant): 3 mg/kg; for concentration at 0.1 h / concentration at 0.25 h / concentration at 0.5 h / concentration at 1 h / concentration at 2 h / concentration at 4 h / concentration at 6 h / concentration at 8 h: read-out: mean prodrug concentration in plasma; for Cmax at 8 h / Tmax at 8 h / AUC(0-t) at 8 h: prodrug; for AUC(0-t) at 8 h: read-out: AUC0–8h
Protocol: (§1) To compare the in vivo PK profiles to TXL and our previously reported drug lead 1 (Tables S19 and S26),[39] one group of male C57BL/6 mice were administered a single oral dose (p.o., 10 mg/kg) of 2a, 16g, or 16h (refer to Experimental Methods). Additionally, a separate group of mice were given a single intravenous dose (i.v., 3 mg/kg) of each prodrug to obtain plasma clearance (Cl), volume of distribution (Vd), and oral bioavailability data. Blood was sampled at 8 time points over 8 h (i.v.) or 24 h (p.o.) postdose, and plasma was isolated via centrifugation. Tissues (liver, kidney, and brain) were also harvested and homogenized at 3 time points over 24 h after oral dose. The concentrations of prodrug and TFV metabolite in each of these samples was then quantified using LC–MS/MS methodology.
(§2) Healthy male C57BL/6 mice (8–12 weeks old) weighing 20–30 g were procured from Global, India. Three mice were housed in each cage. Temperature and humidity were maintained at 22 ± 3 °C and 30–70%, respectively, and illumination was controlled to provide for 12 h light and 12 h dark cycles. Temperature and humidity were recorded by an autocontrolled data logger system. All animals were provided a laboratory rodent diet (Envigo Research private Ltd., Hyderabad). Reverse osmosis H2O treated with ultraviolet light was provided ad libitum.
(§3) Male mice were divided into two groups (n = 18 total, n = 9 per treatment group, n = 3 per time point, sparse sampling). One group was intravenously administered a solution of 2a, 16g, and 16h in 10% PEG-300, 10% Solutol HS-15, and 80% saline at 3 mg/kg with a dosing volume of 5 mL/kg. The second group was administered a solution of 2a, 16g, and 16h in 10% EtOH and 90% olive oil at 10 mg/kg via oral gavage with a dosing volume of 10 mL/kg.
(§4) Blood samples (approximately 60 μL) were collected from retro-orbital plexus under light isoflurane anesthesia such that the samples were obtained predose, as well as at eight time points post dose: 0.1, 0.25, 0.5, 1, 2, 4, 6, and 8 (i.v.) and 0.25, 0.5, 1, 2, 4, 8, 12, and 24 h (p.o.). Immediately after blood collection, plasma samples were harvested by centrifugation at 4000 rpm and 4 °C for 10 min and stored at −70 °C until LC–MS/MS analysis. Following blood collection from p.o. group, liver, kidney, and brain samples were collected (n = 3 per treatment group per time point) at 1, 4, and 24 h post dose. After isolation, tissue samples were rinsed three times with ice-cold saline and dried with blotting paper. Next, the tissue samples were homogenized using ice-cold PBS (pH = 7.4), and the resulting homogenates were stored below −70 °C until LC-MS/MS analysis. The total homogenate volume was 3 times the brain weight and 5 times the liver and kidney weight.
(§5) Areas under the concentration–time curves (AUC0–8h and AUC0–24h) were calculated via the linear trapezoidal rule[65] using GraphPad Prism v9. Furthermore, terminal elimination rate constants k were determined using linear regression (slope = −k) of the terminal portion of semilog-transformed concentration–time curves (Figures S44, S45, S47, S48, S50, and S51).

[3] = Mouse plasma pharmacokinetics after oral dose; format: in vivo, male C57BL/6 mice; conditions: for bioavailability: oral; for bioavailability / bioavailability at 24 h: p.o. 10 mg/kg vs i.v. 3 mg/kg, read-out: %F (oral bioavailability); for AUC(0-t) at 24 h: read-out: AUC0–24h; for mean TFV concentration in plasma: p.o. 10 mg/kg of prodrug, LLOQ 4.84 ng/mL; for concentration at 0.25 h / mean TFV concentration in plasma: 0.25 h; for k (terminal elimination rate constant): 10 mg/kg
Protocol: as §1, §2, §3, §4, §5

[4] = Mouse plasma stability; format: in vitro ADME; conditions: for mouse plasma t1/2: 3 μM, 37 °C, 240 min course; for remaining at 4 h, 3 μM / half-life at 3 μM: male, BALB/C, mouse, plasma; for half-life at 3 μM: read-out: in vitro mouse plasma stability t1/2
Protocol: Human plasma (lithium heparin (LiHep) mixed, gender pooled, 0.2 μm filtered) and mouse plasma (BALB/C, LiHep mixed, male pooled, 0.2 μm filtered) were purchased from BioIVT. Procaine (Sigma-Aldrich) served as a positive control for both human and mouse plasma experiments. […] Next, the human or mouse plasma (994 μL) was aliquoted into 1.5 mL Eppendorf tubes with duplicates (reactions A and B) being prepared for each compound. The plasma was then incubated at 37 °C for 10 min. […] This procedure provided duplicate experiments with a final volume of 1000 μL (<0.2% organic solvent content) and a final test compound concentration of 3 μM. Aliquots (100 μL) were removed from each reaction mixture at 0, 30, 60, 120, and 240 min time intervals and quenched with 150 μL of cold ISTD solution (2 μM 7-ethoxy-d5-coumarin in MeOH). […] The positive control reaction was conducted at a final volume of 1000 μL for a single run of each time point. Finally, the negative control experiment was conducted with test compounds in Dulbecco’s phosphate buffered saline without calcium and magnesium (DPBS, Fisher Scientific, 143 μL) and analyzed at the 240 min time point.
Plasma Stability Assay Setup Example
Test Compound: 994 µL Human or Mouse Plasma + 6.0 µL TC (500 µM, Vial A).
994 µL Human or Mouse Plasma + 6.0 µL TC (500 µM, Vial B).
Positive Control: 994 µL Human or Mouse Plasma + 6.0 µL Procaine (500 µM).
Negative Control: 142 µL DPBS (1X, pH 7.1-7.3) + 0.9 µL TC (500 µM).
Quenching Mixture: 150 µL MeOH with ISTD (2 µM d5-7-ethoxycoumarin).
Final Volume After Quenching: 250 µL (100 µL from reaction mixture and 150 µL quencher
solution; ISTD final concentration of 1.2 µM). […]

[5] = Cellular cytotoxicity (cell viability, CellTiter 96 or resazurin); conditions: human, CC50, HEK293T cells, compounds formulated with HSA (5:1)
Protocol: Second, HIV IC50 and cellular CC50 were determined with a pseudoviral, whole (HEK293T) cell, nonreplicative HIV assay, using the HIV-1 subtype C strain MJ4 (refer to Experimental Methods). To account for the unique amphiphilic properties of TXL and the novel HTP-based prodrugs, all compounds were formulated in a human serum albumin (HSA) solution (5:1 drug:protein).
Assessment of cytotoxicity and antiviral activity of all final compounds in vitro was conducted according to previously reported procedures.[39] In summary, human embryonic kidney (HEK293T) cells maintained in high glucose (25 mM), Dulbecco’s modified Eagle’s medium (DMEM) supplemented with fetal bovine serum (10%), sodium pyruvate (1 mM), L-glutamine (2 mM), HEPES (25 mM), and gentamicin (50 μg/mL) were used for determinations. The cells were maintained in an incubator at 37 °C under 5% CO2 in a humidified atmosphere. For both cytotoxicity and antiviral screening, all compounds were evaluated in duplicate in at least two independent experiments. All final compounds were formulated with human serum albumin (HSA, 5:1 compound to HSA molar ratio) and subsequently diluted with complete DMEM to 200 μM. Fifty microliters of test compound serial dilutions (3-fold) were prepared in 96-well culture plates, after which 50 μL of HEK293T cells (2 × 10^4 cells/well) was added. […] Cytotoxicity was then assessed by quantifying cell viability using the CellTiter 96 Aqueous One Solution Cell Proliferation Assay (Promega, Madison, WI) or resazurin sodium salt (cat# R7017, Merck, Darmstadt, Germany).[61] […] Antiviral activity was then assessed using a single-cycle, nonreplicating, envelope deleted HIV pseudoviral in vitro assay.[62],[63] The assay relies on the introduction of the firefly luciferase gene into HEK293T cells through infection with HIV-like viral particles, containing Reverse Transcriptase (RT) and Integrase (IN) from the HIV-1 subtype C strain MJ4.[64] The expression of the luciferase in the cells is directly proportional to the level of infection by the HIV-like viral particles and can be used to assess the inhibition of HIV-1 RT and IN. To evaluate anti-HIV activity, 3-fold serial dilutions of all final compounds were prepared in 50 μL over the noncytotoxic concentration range (as determined from the cytotoxicity screens described above) in 96-well culture plates. HEK293T cells (2 × 10^4 cells/well) and HIV-like viral particles, standardized to produce a luminescence signal of 1 × 10^6 relative light units (RLUs) in the growth medium only control, were combined, and 50 μL was added to the wells containing serially diluted test compounds. […] The expression of luciferase was subsequently quantified by adding 100 μL of the Bright-Glo Luciferase Assay substrate (Promega, Madison, WI) to each well of the 96-well plates. After incubation at rt for 3 min, luminescence was quantified on the GloMax Explorer Multimode Microplate Reader (Promega, Madison, WI).

[6] = male, C57BL/6, mouse, plasma, po
[7] = male, C57BL/6, mouse, plasma, po, p.o. 10 mg/kg, read-out: mean prodrug concentration in plasma
[8] = male, C57BL/6, mouse, po, plasma, p.o. 10 mg/kg
[9] = male, C57BL/6, mouse, po, plasma, prodrug, p.o. 10 mg/kg
[10] = p.o. 10 mg/kg, 24 h, BLQ = below LLOQ (0.58 ng/mL 2a, 0.62 ng/mL 16g)
[11] = relative percent remaining at 240 min

Structure (SMILES)	hepatocyte CLint at 20 μM [1] [µL/min/1e6 cells]	half-life at 20 μM [1] [h]	k (terminal elimination rate constant) [2]	Vd at 8 h ([2]; male, C57BL/6, mouse, iv) [L/kg]	clearance ([2]; male, C57BL/6, mouse, iv) [mL/min/kg]	concentration at 0.1 h ([2]; male, C57BL/6, mouse, iv) [ng/mL]	concentration at 0.25 h ([2]; male, C57BL/6, mouse, iv) [ng/mL]	concentration at 0.5 h ([2]; male, C57BL/6, mouse, iv) [ng/mL]	concentration at 1 h ([2]; male, C57BL/6, mouse, iv) [ng/mL]	concentration at 2 h ([2]; male, C57BL/6, mouse, iv) [ng/mL]	concentration at 4 h ([2]; male, C57BL/6, mouse, iv) [ng/mL]	concentration at 6 h ([2]; male, C57BL/6, mouse, iv) [ng/mL]	concentration at 8 h ([2]; male, C57BL/6, mouse, iv) [ng/mL]	Cmax at 8 h ([2]; male, C57BL/6, mouse, iv) [ng/mL]	Tmax at 8 h ([2]; male, C57BL/6, mouse, iv) [min]	AUC(0-t) at 8 h ([2]; male, C57BL/6, mouse, iv) [ng·h/mL]	bioavailability ([3]; male, C57BL/6, mouse, plasma) [%]	bioavailability at 24 h [3, 6] [%]	concentration at 0.25 h [3, 7] [ng/mL]	concentration at 0.5 h [3, 7] [ng/mL]	other results
CCCCCCCCCCCCCCCCSCCCOP(=O)(O)CO[C@H](C)Cn1cnc2c(N)ncnc21.N [2a]	14.1	1.49 ± 0.00667	0.4666 and 0.467	18.9	147	2060	320	134	57.1	8.68	3.75	3.41	1.21	2060	6	340	20	19.3	29.6	51.8	half-life ([2]; male, C57BL/6, mouse, iv): 1.49 h; concentration at 1 h [3, 7]: 73.3 ng/mL; concentration at 2 h [3, 7]: 48 ng/mL; concentration at 4 h [3, 7]: 8.34 ng/mL; concentration at 8 h [3, 7]: 7.1 ng/mL; concentration at 12 h [3, 7]: 7.6 ng/mL; half-life at 24 h [3, 8]: 3.49 h; Cmax at 24 h [3, 9]: 73.3 ng/mL; Tmax [3, 9]: 1 h; AUC(0-t) at 24 h [3, 9]: 219 ng·h/mL; mean TFV concentration in plasma [3]: BLQ; mean prodrug concentration in plasma [3, 10]: BLQ; Vd ([3]; plasma, p.o. 10 mg/kg): 44.4 L/kg; k (terminal elimination rate constant) ([3]; plasma, p.o. 10 mg/kg): 0.1985 and 0.199; mouse plasma t1/2 [4]: > 4 h; remaining at 4 h, 3 μM [4, 11]: 95%; half-life at 3 μM [4]: > 4 h; mouse plasma % remaining [4, 11]: > 95%; CC50 at 48 h [5]: 50 µM
C[C@H](Cn1cnc2c(N)ncnc21)OCP(=O)(O)OCCCSCCCCCCCCCCCCc1ccc(F)cc1.N [16g]	27	0.783	0.4057 and 0.406	19.9	134	863	315	227	71.5	21.6	12.1	7.5	3.12	863	6	373	20	20.9	17	43	half-life at 8 h ([2]; male, C57BL/6, mouse, iv): 1.71 h; concentration at 1 h [3, 7]: 58.6 ng/mL; concentration at 2 h [3, 7]: 55.9 ng/mL; concentration at 4 h [3, 7]: 16 ng/mL; concentration at 8 h [3, 7]: 11.2 ng/mL; concentration at 12 h [3, 7]: 10.5 ng/mL; half-life at 24 h [3, 8]: 4.19 h; Cmax at 24 h [3, 9]: 58.6 ng/mL; Tmax [3, 9]: 1 h; AUC(0-t) at 24 h [3, 9]: 260 ng·h/mL; mean TFV concentration in plasma [3]: BLQ; mean prodrug concentration in plasma [3, 10]: BLQ; Vd ([3]; plasma, p.o. 10 mg/kg): 48.7 L/kg; k (terminal elimination rate constant) ([3]; plasma, p.o. 10 mg/kg): 0.1654 and 0.165; mouse plasma t1/2 [4]: > 4 h; remaining at 4 h, 3 μM [4, 11]: > 95%; half-life at 3 μM [4]: > 4 h; CC50 at 48 h [5]: > 100 µM
C[C@H](Cn1cnc2c(N)ncnc21)OCP(=O)(O)OCCCSCCCCCCCCCCCCC1CCCCC1.N [16h]	18 to 19	1.12 to 1.18	0.5743 and 0.574	8.97	85.8	2380	522	406	127	17.4	8.98	3.65	1.41	2380	6	583	55	54.9	48.9	79.1	half-life at 8 h ([2]; male, C57BL/6, mouse, iv): 1.21 h; concentration at 1 h [3, 7]: 140 ng/mL; concentration at 2 h [3, 7]: 195 ng/mL; concentration at 4 h [3, 7]: 59.2 ng/mL; concentration at 8 h [3, 7]: 36.1 ng/mL; concentration at 12 h [3, 7]: 38.2 ng/mL; concentration at 24 h ([3]; male, C57BL/6, mouse, plasma, po, p.o. 10 mg/kg, 24 h, BLQ = below LLOQ (0.58 ng/mL 2a, 0.62 ng/mL 16g), read-out: mean prodrug concentration in plasma): 0.87 ng/mL; half-life [3, 8]: 3.07 h; Cmax at 24 h [3, 9]: 195 ng/mL; Tmax at 24 h [3, 9]: 2 h; AUC(0-t) at 24 h [3, 9]: 1070 ng·h/mL; mean TFV concentration in plasma [3]: BLQ; Vd ([3]; plasma, p.o. 10 mg/kg): 22.8 L/kg; k (terminal elimination rate constant) ([3]; plasma, p.o. 10 mg/kg): 0.2258 and 0.226; mouse plasma t1/2 [4]: > 4 h; remaining at 4 h, 3 μM [4, 11]: 71%; half-life at 3 μM [4]: > 4 h; CC50 at 48 h [5]: 48 µM
